Experimental data as given in patent US11535597B2, “Photoreactive ligands and uses thereof” (The Scripps Research Institute, priority 2017, dated 2022).

Tested on: proteins in HEK293T cells
Experiment: MS-based mapping of FFF probe-modified peptides (isoTOP, sites of labeling)
Format: binding, human
Conditions: for Labeled Peptide (residues) of NPM1 Nucleophosmin: P06748, PDB 2P1B
How it was run: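 Live cells treated with fragment probes (200-250 μM) in serum-free DMEM, with or without competitor ligands. Proteomes clicked to light/heavy biotin-TEV-azide, streptavidin-enriched, trypsin- then TEV-digested; probe-modified peptides identified by LC-MS/MS with any residue allowed as modified site, isoTOP ratios quantified by CIMAGE.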

## C#CCCC1(CCC(=O)N2CCCCC2Cc2ccccc2)N=N1 (stereo not drawn) [probe 13, 1-(2-Benzylpiperidin-1-yl)-3-(3-(but-3-yn-1-yl)-3H-diazirin-3-yl)propan-1-one]
Accession Q9BQ67, residues of probe-labeled peptide, family Uncategorized
  Labeled Peptide of GRWD1 Glutamate-rich WD repeat-containing protein 1: 263-287
IMPDH2 Inosine-5-monophosphate dehydrogenase 2, residues of probe-modified peptide
  Labeled Peptide: 110-124
MAPRE1 (Q15691), residues of the probe-labeled peptide
  Labeled Peptide: 223-241
MCM2 (P49736), residues of the probe-labeled peptide
  Labeled Peptide: 797-807
METTL7A (Q9H8H3), residues of the probe-labeled peptide
  Labeled Peptide: 94-105
NTMT1 (Q9BV86), residues of the probe-labeled peptide
  Labeled Peptide: 167-185
NUP155 (O75694), residues of the probe-labeled peptide
  Labeled Peptide: 952-968
OPA1 (O60313), residues of the probe-labeled peptide
  Labeled Peptide: 801-818
Peptide DELHIVEAEAMNYEGSPIK
  Labeled Peptide (residues) of NPM1 Nucleophosmin: 55-73
Peptide MSVQPTVSLGGFEITPPVVLR
  Labeled Peptide (residues) of NPM1 Nucleophosmin: 81-101
P12268 IMPDH2 Inosine-5-monophosphate dehydrogenase 2
  Labeled Peptide: 110-124
P24666 ACP1 Low molecular weight phosphotyrosine protein phosp
  Labeled Peptide: 42-59
P31939 ATIC Bifunctional purine biosynthesis protein PURH
  Labeled Peptide: 178-194
P32119, peptide TDEGIAYR, PDB 1QMV
  Labeled Peptide (residues) of PRDX2 Peroxiredoxin-2: 120-127
Q13867 BLMH Bleomycin hydrolase
  Labeled Peptide: 203-218
Q14240 EIF4A2 Eukaryotic initiation factor 4A-II
  Labeled Peptide: 70-83
Protein ACP1 (P24666), residues of probe-labeled peptide
  Labeled Peptide: 42-59
Protein ACP1 Low molecular weight phosphotyrosine protein phosp, residues of probe-labeled peptide
  Labeled Peptide: 42-59
Protein ANP32A (Q10567), residues of probe-labeled peptide
  Labeled Peptide: 117-132
Protein ANP32A Acidic leucine-rich nuclear phosphoprotein 32 fami, residues of probe-labeled peptide
  Labeled Peptide: 117-132
Protein ANP32B (Q92688), residues of probe-labeled peptide
  Labeled Peptide: 117-132
Protein AP1B1 (Q10567), residues of probe-labeled peptide
  Labeled Peptide: 902-913
Protein ATIC (P31939), residues of probe-labeled peptide
  Labeled Peptide: 178-194
Protein ATIC Bifunctional purine biosynthesis protein PURH, residues of probe-labeled peptide
  Labeled Peptide: 178-194
Protein ATP5F1 (P24539), residues of probe-labeled peptide
  Labeled Peptide: 71-90
Protein ATP6V1B2 (P21281), residues of probe-labeled peptide
  Labeled Peptide: 83-93
Protein ATP6V1BE1 (P36543), residues of probe-labeled peptide
  Labeled Peptide: 200-212
Protein BLMH (Q13867), residues of probe-labeled peptide
  Labeled Peptide: 203-218
Protein BLMH Bleomycin hydrolase, residues of probe-labeled peptide
  Labeled Peptide: 203-218
Protein CALM3 Calmodulin (P62158), residues of probe-labeled peptide
  Labeled Peptide: 128-149
Protein CCT7 T-complex protein 1 subunit eta (Q99832), residues of probe-labeled peptide
  Labeled Peptide: 85-106
Protein COPB1 Coatomer subunit beta (P53618), residues of probe-labeled peptide
  Labeled Peptide: 262-279
Protein CSTF3 Cleavage stimulation factor subunit 3 (Q12996), residues of probe-labeled peptide
  Labeled Peptide: 440-464
Protein DIABLO Diablo homolog, mitochondrial (Q9NR28), residues of probe-labeled peptide
  Labeled Peptide: 124-140
Protein DIABLO Diablo homolog, mitochondrial, residues of probe-labeled peptide
  Labeled Peptide: 124-140
Protein EEF1A1 Elongation factor 1-alpha 1 (P68104), residues of probe-labeled peptide
  Labeled Peptide: 135-146
Protein EEF1G Elongation factor 1-gamma (P26641), residues of probe-labeled peptide
  Labeled Peptide: 379-400
Protein EIF3L Eukaryotic translation initiation factor 3 submit (Q9Y262), residues of probe-labeled peptide
  Labeled Peptide: 404-419
Protein EIF4A2 Eukaryotic initiation factor 4A-II (Q14240), residues of probe-labeled peptide
  Labeled Peptide: 70-83
Protein EIF4A2 Eukaryotic initiation factor 4A-II, residues of probe-labeled peptide
  Labeled Peptide: 70-83
Protein ERH Enhancer of rudimentary homolog (P84090), residues of probe-labeled peptide
  Labeled Peptide: 18-34
Protein ERH Enhancer of rudimentary homolog, residues of probe-labeled peptide
  Labeled Peptide: 18-34
Protein FKBP4 Peptidyl-prolyl cis-trans isomerase (Q02790), residues of probe-labeled peptide
  Labeled Peptide: 190-206
Protein FKBP4 Peptidyl-prolyl cis-trans isomerase FKBP4, residues of probe-labeled peptide
  Labeled Peptide: 190-206
Protein FKBP10 Peptidyl-prolyl cis-trans isomerase FKBP10 (Q96AY3), residues of probe-labeled peptide
  Labeled Peptide: 198-212
Protein KPNA2 Importin subunit alpha-2, residues of the probe-labeled peptide
  Labeled Peptide: 301-315
Protein NTMT1 N-terminal Xaa-Pro-Lys N-methyltransferase 1, residues of the probe-labeled peptide
  Labeled Peptide: 167-185
Protein O43615 TIMM44 Mitochondrial import inner membrane translocase su
  Labeled Peptide: 428-439
Protein P62241 RPS8 40S ribosomal protein S8
  Labeled Peptide: 158-170
Protein P62314 SNRNP40 U5 small nuclear ribonucleoprotein Sm D1
  Labeled Peptide: 67-86
Protein P62888 RPL30 60S ribosomal protein L30
  Labeled Peptide: 58-68
Protein PDCD4 Programmed cell death protein 4 (Q53EL6)
  Labeled Peptide: 246-256
Protein PDCD4 Programmed cell death protein 4, residues of the probe-labeled peptide
  Labeled Peptide: 246-256
Protein PDS5A Sister chromatid cohesion protein PDS5 homolog A (Q29RF7)
  Labeled Peptide: 638-657
Protein PFN1 Profilin-1 (P07737)
  Labeled Peptide: 39-54
Protein PHGDH D-3-phosphoglycerate dehydrogenase (O43175)
  Labeled Peptide: 295-308
Protein PMPCB Mitochondrial-processing peptidase subunit beta (O75439)
  Labeled Peptide: 406-424
Protein PRDX2 Peroxiredoxin-2 (P32119)
  Labeled Peptide: 120-127
Protein PRDX2 Peroxiredoxin-2, residues of the probe-labeled peptide
  Labeled Peptide: 120-127
Protein PRMT1 Protein argine N-methyltransferase 1 (Q99873)
  Labeled Peptide: 380-391
Protein PTPLAD1 3-hydroxyacyl-CoA dehydratase 3 (Q9P035)
  Labeled Peptide: 133-146
Protein Q8N3U4 STAG2 Cohesin subunit SA-2
  Labeled Peptide: 273-290
Protein Q96DI7 SNRNP40 U5 small nuclear ribonucleoprotein 40 kDa protein
  Labeled Peptide: 233-260
Protein Q01082 SPTAN1 Spectrin beta chain, non-erythrocytic 1
  Labeled Peptide: 1706-1717
Protein Q12931 TRAP1 Heat shock protein 75 kDa, mitochondrial
  Labeled Peptide: 603-619
Protein Q92922 SMARCC1 SWI/SNF complex subunit SMARCC1
  Labeled Peptide: 894-905
Protein RBC2 Replication (P35250)
  Labeled Peptide: 211-230
Protein RCN1 Reticulocalbin-1 (Q15293)
  Labeled Peptide: 91-105
Protein RPL30 60S ribosomal protein L30, residues of the probe-labeled peptide
  Labeled Peptide: 58-68
Protein STAG2 Cohesin subunit SA-2, residues of the probe-modified peptide
  Labeled Peptide: 273-290
Protein TIMM44 Mitochondrial import inner membrane translocase su, residues of the probe-modified peptide
  Labeled Peptide: 428-439
Residues of probe-labeled peptide on TUBA4A Tubulin alpha-4A chain, Accession # P68366
  Labeled Peptide: 340-352
